Laboratory results taken from ChEMBL document CHEMBL4813944 (Eur J Med Chem, 2021).
The source made the active and inactive calls. The rule behind the calls is not given here.

Tests used:
[1] = system: SH-SY5Y; assay: Inhibition of Salsolinol-induced oxidative stress in human SH-SY5Y cells assessed as reduction in superoxide radical formation at 1000 uM measured after 24 hrs by DHE staining based fluorescence microscopy; type: functional, cell-based
[2] = system: SH-SY5Y; assay: Inhibition of Salsolinol-induced oxidative stress in human SH-SY5Y cells assessed as reduction in superoxide radical formation measured after 24 hrs by DHE staining based fluorescence spectrophotometry; type: functional, cell-based; settings: dose 10-1000 µM
[3] = Cytotoxicity against human SH-SY5Y cells assessed as cell viability at 10 uM measured after 24 hrs by calcein-AM staining based fluorescence analysis; settings: read-out: Activity
[4] = Cytotoxicity against human SH-SY5Y cells assessed as cell viability at 100 uM measured after 24 hrs by calcein-AM staining based fluorescence analysis; settings: read-out: Activity
[5] = Inhibition of salsolinol-induced mPTP opening in human SH-SY5Y cells assessed as fold change in fluorescence intensity at 1000 uM measured after 24 hrs by calcein AM/CoCl2 based fluorescence microscopic analysis (reference value: 0.49 +/-0.02); type: functional
[6] = system: SH-SY5Y; assay: Neuroprotective activity against salsolinol-induced neurotoxicity in human SH-SY5Y cells assessed as cell viability at 1000 uM measured after 24 hrs by calcein-AM staining based fluorescence analysis (reference value: 70.49 +/-0.51%); type: functional; settings: read-out: Activity
[7] = system: SH-SY5Y; assay: Inhibition of Salsolinol-induced oxidative stress in human SH-SY5Y cells assessed as superoxide radical formation at 1000 uM measured after 24 hrs by DHE staining based fluorescence spectrophotometry (reference value: 100%); type: functional; parameters: scale not given: the % may be the effect or the level left
[8] = system: SH-SY5Y; assay: Neuroprotective activity against salsolinol-induced neurotoxicity in human SH-SY5Y cells assessed as cell death at 1000 uM measured after 24 hrs by PI staining based analysis (reference value: 100%); type: functional
[9] = Inhibition of salsolinol-induced mitochondrial depolarization in human SH-SY5Y cells assessed as mitochondrial membrane potential at 100 uM measured after 24 hrs by JC-1 staining based flow cytometry (reference value: 45.3 +/-2.09%); type: functional; parameters: scale not given: the % may be the effect or the level left
[10] = system: SH-SY5Y; assay: Neuroprotective activity against salsolinol-induced neurotoxicity in human SH-SY5Y cells assessed as cell viability at 100 uM measured after 24 hrs by calcein-AM staining based fluorescence analysis (reference value: 70.49 +/-0.51%); type: functional; settings: read-out: Activity
[11] = system: SH-SY5Y; assay: Neuroprotective activity against salsolinol-induced neurotoxicity in human SH-SY5Y cells assessed as cell death at 100 uM measured after 24 hrs by PI staining based analysis (reference value: 100%); type: functional
[12] = Inhibition of salsolinol-induced mitochondrial depolarization in human SH-SY5Y cells assessed as mitochondrial membrane potential at 1000 uM measured after 24 hrs by JC-1 staining based flow cytometry (reference value: 45.3 +/-2.09%); type: functional; parameters: scale not given: the % may be the effect or the level left
[13] = system: SH-SY5Y; assay: Inhibition of salsolinol-induced apoptosis in human SH-SY5Y cells assessed as caspase 3/7 activity at 1000 uM incubated for 24 hrs using Ac-DEVD-AMC as substrate by fluorescence analysis (reference value: 100%); type: functional; parameters: scale not given: the % may be the effect or the level left
[14] = Cytotoxicity against human SH-SY5Y cells assessed as cell viability at 1000 uM measured after 24 hrs by calcein-AM staining based fluorescence analysis; settings: read-out: Activity
[15] = system: SH-SY5Y; assay: Inhibition of salsolinol-induced apoptosis in human SH-SY5Y cells assessed as appearance of necrotic cells along with early and late apoptotic cells at 1000 uM measured after 24 hrs by AO/PIstaining based fluorescence microscopy; type: functional, cell-based
[16] = Cytotoxicity against human SH-SY5Y cells assessed as cell viability at 0.1 uM measured after 24 hrs by calcein-AM staining based fluorescence analysis; settings: read-out: Activity
[17] = Cytotoxicity against human SH-SY5Y cells assessed as cell viability at 1 uM measured after 24 hrs by calcein-AM staining based fluorescence analysis; settings: read-out: Activity
[18] = system: SH-SY5Y; assay: Neuroprotective activity against salsolinol-induced neurotoxicity in human SH-SY5Y cells assessed as cell viability at 1 uM measured after 24 hrs by calcein-AM staining based fluorescence analysis (reference value: 70.49 +/-0.51%); type: functional; settings: read-out: Activity
[19] = system: SH-SY5Y; assay: Neuroprotective activity against salsolinol-induced neurotoxicity in human SH-SY5Y cells assessed as cell death at 10 uM measured after 24 hrs by PI staining based analysis (reference value: 100%); type: functional
[20] = system: SH-SY5Y; assay: Inhibition of glutamate-induced apoptosis in human SH-SY5Y cells assessed as caspase 3/7 activity at 10 uM incubated for 1 hr using Ac-DEVD-AMC as substrate by fluorescence analysis (reference value: 100%); type: functional; parameters: scale not given: the % may be the effect or the level left
[21] = system: SH-SY5Y; assay: Inhibition of glutamate-induced oxidative stress in human SH-SY5Y cells assessed as reduction in superoxide radical formation at 10 uM measured after 4 hrs by DHE staining based fluorescence microscopy; type: functional, cell-based
[22] = system: SH-SY5Y; assay: Inhibition of glutamate-induced oxidative stress in human SH-SY5Y cells assessed as superoxide radical formation at 10 uM measured after 4 hrs by DHE staining based fluorescence spectrophotometry (reference value: 100%); type: functional; parameters: scale not given: the % may be the effect or the level left
[23] = system: SH-SY5Y; assay: Neuroprotective activity against glutamate-induced neurotoxicity in human SH-SY5Y cells assessed as cell death at 10 uM measured after 24 hrs by PI staining based assay (reference value: 100%); type: functional
[24] = system: SH-SY5Y; assay: Inhibition of Salsolinol-induced oxidative stress in human SH-SY5Y cells assessed as superoxide radical formation at 1 uM measured after 24 hrs by DHE staining based fluorescence spectrophotometry (reference value: 100%); type: functional; parameters: scale not given: the % may be the effect or the level left
[25] = system: SH-SY5Y; assay: Inhibition of salsolinol-induced apoptosis in human SH-SY5Y cells assessed as caspase 3/7 activity at 10 uM incubated for 24 hrs using Ac-DEVD-AMC as substrate by fluorescence analysis (reference value: 100%); type: functional; parameters: scale not given: the % may be the effect or the level left
[26] = system: SH-SY5Y; assay: Inhibition of salsolinol-induced apoptosis in human SH-SY5Y cells assessed as caspase 3/7 activity at 1 uM incubated for 24 hrs using Ac-DEVD-AMC as substrate by fluorescence analysis (reference value: 100%); type: functional; parameters: scale not given: the % may be the effect or the level left
[27] = Inhibition of glutamate-induced mitochondrial depolarization in human SH-SY5Y cells assessed as mitochondrial membrane potential at 10 uM incubated for 1 hr by JC10 dye based fluorescence analysis (reference value: 31.2 +/-4.6%); type: functional; parameters: scale not given: the % may be the effect or the level left
[28] = system: SH-SY5Y; assay: Inhibition of Salsolinol-induced oxidative stress in human SH-SY5Y cells assessed as reduction in superoxide radical formation at 1 uM measured after 24 hrs by DHE staining based fluorescence microscopy; type: functional, cell-based
[29] = Inhibition of salsolinol-induced mPTP opening in human SH-SY5Y cells assessed as fold change in fluorescence intensity at 10 uM measured after 24 hrs by calcein AM/CoCl2 based fluorescence microscopic analysis (reference value: 0.49 +/-0.02); type: functional
[30] = system: SH-SY5Y; assay: Inhibition of salsolinol-induced mitochondrial depolarization in human SH-SY5Y cells assessed as recovery of mitochondrial membrane potential measured after 24 hrs by JC-1 staining based flow cytometry; type: functional, cell-based
[31] = system: SH-SY5Y; assay: Inhibition of salsolinol-induced apoptosis in human SH-SY5Y cells assessed as appearance of necrotic cells along with early and late apoptotic cells at 10 uM measured after 24 hrs by AO/PIstaining based fluorescence microscopy; type: functional, cell-based
[32] = Inhibition of salsolinol-induced mitochondrial depolarization in human SH-SY5Y cells assessed as mitochondrial membrane potential at 10 uM measured after 24 hrs by JC-1 staining based flow cytometry (reference value: 45.3 +/-2.09%); type: functional; parameters: scale not given: the % may be the effect or the level left
[33] = Inhibition of salsolinol-induced mPTP opening in human SH-SY5Y cells assessed as fold change in fluorescence intensity at 1 uM measured after 24 hrs by calcein AM/CoCl2 based fluorescence microscopic analysis (reference value: 0.49 +/-0.02); type: functional
[34] = system: SH-SY5Y; assay: Inhibition of Salsolinol-induced oxidative stress in human SH-SY5Y cells assessed as superoxide radical formation at 10 uM measured after 24 hrs by DHE staining based fluorescence spectrophotometry (reference value: 100%); type: functional; parameters: scale not given: the % may be the effect or the level left
[35] = system: SH-SY5Y; assay: Neuroprotective activity against glutamate-induced neurotoxicity in human SH-SY5Y cells assessed as reduction in cell death at 0.1 to 1 uM measured after 24 hrs by PI staining based assay; type: functional; settings: dose 0.1-1 µM

SMILES: CC(=O)N[C@@H](CS)C(=O)O [ACETYLCYSTEINE]
- inhibition [1]: Active
- inhibition [2]: Dose-Dependent Effect
- viability at 24 h, 10 µM [3]: 108%
- viability at 24 h, 100 µM [4]: 114%
- fold change (FC) [5]: 0.76
- viability at 1000 µM [6]: 89%
- Activity [7]: 53.8%
- Activity [8]: 68.2%
- Activity [9]: 66.4%
- viability at 100 µM [10]: 82.3%
- Activity [11]: 72.5%
- Activity [12]: 69.7%
- Activity [13]: 79.3%
- viability at 24 h, 1000 µM [14]: 120%
- Activity [15]: Active

SMILES: C=C(C)[C@@H]1CC[C@]2(C(=O)O)CC[C@]3(C)[C@H](C=C[C@@H]4[C@@]5(C)Cc6sc(N7CCOCC7)nc6C(C)(C)[C@@H]5CC[C@]43C)[C@@H]12
- viability at 24 h, 10 µM [3]: 87%
- viability at 24 h, 0.1 µM [16]: 91.3%
- viability at 24 h, 1 µM [17]: 90%

SMILES: C=C(C(=O)OCc1cn([C@@H]2O[C@H](COC(C)=O)[C@H](OC(C)=O)[C@H](OC(C)=O)[C@H]2OC(C)=O)nn1)[C@@H]1CC[C@]2(COC(C)=O)CC[C@]3(C)[C@H](CC[C@@H]4[C@@]5(C)CC[C@H](OC(C)=O)C(C)(C)[C@@H]5CC[C@]43C)[C@@H]12
- viability at 1 µM [18]: 90.9%
- viability at 24 h, 10 µM [3]: 130%
- viability at 24 h, 0.1 µM [16]: 140%
- Activity [19]: 68.7%
- viability at 24 h, 1 µM [17]: 139%

SMILES: CC(=O)N(O)CCCCCNC(=O)CCC(=O)N(O)CCCCCNC(=O)CCC(=O)N(O)CCCCCN [DEFEROXAMINE]
- Activity [20]: 77.4%
- inhibition [21]: inactive
- Activity [22]: 87.2%
- Activity [23]: 79.5%

SMILES: C=C(C(=O)O)[C@@H]1CC[C@]2(COC(C)=O)CC[C@]3(C)[C@H](CC[C@@H]4[C@@]5(C)CC[C@H](OC(C)=O)C(C)(C)[C@@H]5CC[C@]43C)[C@@H]12
- viability at 24 h, 10 µM [3]: 11.6%
- viability at 24 h, 0.1 µM [16]: 102%
- viability at 24 h, 1 µM [17]: 102%

SMILES: C=C(C(=O)OCc1cn([C@@H]2O[C@H](COC(C)=O)[C@@H](OC(C)=O)[C@H](OC(C)=O)[C@H]2OC(C)=O)nn1)[C@@H]1CC[C@]2(COC(C)=O)CC[C@]3(C)[C@H](CC[C@@H]4[C@@]5(C)CC[C@H](OC(C)=O)C(C)(C)[C@@H]5CC[C@]43C)[C@@H]12
- Activity [24]: 74.5%
- viability at 1 µM [18]: 91.7%
- Activity [20]: 90.9%
- Activity [25]: 79.5%
- Activity [26]: 81.8%
- Activity [27]: 74.7%
- viability at 24 h, 10 µM [3]: 128%
- Activity [22]: 82.2%
- inhibition [28]: Active
- fold change (FC) [29]: 1.2
- inhibition [30]: Dose-Dependent Effect
- Activity [31]: Active
- Activity [32]: 89.2%
- fold change (FC) [33]: 0.75
- Activity [34]: 77.2%
- Activity [35]: Active
- viability at 24 h, 0.1 µM [16]: 115%
- Activity [19]: 62.6%
- viability at 24 h, 1 µM [17]: 138%
- Activity [23]: 75.1%
